Reference: ChEMBL document CHEMBL1201862, “PubChem BioAssay data set” (2004)
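These data come from cells grown in 96-well plates and exposed to compound for 48 hours at five concentrations. GI50: concentration for 50% inhibition of growth.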 Calls of active or inactive are those of the source. Cut-off read from the data, not from the text of the source: active = GI50 up to about 1.1 µM and inactive = higher.

What was measured:
Assay in all cases: NCI-60 cell line screen, 48 h
[1] = system: SK-MEL-28
[2] = system: EKVX
[3] = system: UACC-62
[4] = system: OVCAR-8
[5] = system: RXF 393
[6] = system: ACHN
[7] = system: MOLT-4
[8] = system: HL-60
[9] = system: M19-MEL
[10] = system: 786-0
[11] = system: KM-20L2
[12] = system: HT-29
[13] = system: SN12C
[14] = system: LXFL 529
[15] = system: OVCAR-4
[16] = system: SNB-78
[17] = system: SK-MEL-5
[18] = system: XF498
[19] = system: SNB-75
[20] = system: U-251
[21] = system: NCI-H23
[22] = system: HCT-116
[23] = system: RPMI-8226
[24] = system: HCT-15
[25] = system: HOP-92
[26] = system: SK-OV-3
[27] = system: DMS-273
[28] = system: NCI-H226
[29] = system: Malme-3M
[30] = system: COLO 205
[31] = system: IGROV-1
[32] = system: M14
[33] = system: UACC-257
[34] = system: CCRF-CEM
[35] = system: A549
[36] = system: SW-620
[37] = system: SF-295
[38] = system: SF-539
[39] = system: K562
[40] = system: SNB-19
[41] = system: SF-268
[42] = system: HOP-18
[43] = system: UO-31
[44] = system: HOP-62
[45] = system: DLD-1
[46] = system: A498
[47] = system: SR
[48] = system: HCC 2998
[49] = system: NCI-H522
[50] = system: CAKI-1
[51] = system: Hs-578T
[52] = system: MCF7
[53] = system: PC-3
[54] = system: TK-10
[55] = system: MDA-MB-435
[56] = system: OVCAR-5
[57] = system: DU-145
[58] = system: MDA-N
[59] = system: SK-MEL-2
[60] = system: T47D
[61] = system: MDA-MB-231
[62] = system: BT-549
[63] = system: DMS-114
[64] = system: RXF 631
[65] = system: KM12
[66] = system: NCI-H460

## COc1ccc(N2C(=O)C3c4[nH]c5ccccc5c4C4CCC(C(C)(C)C)CC4C3C2=O)cc1OC (stereo not drawn)
[1]
  GI50: 71.1 µM (inactive)
[2]
  GI50: 35.8 µM (inactive)
[3]
  GI50: 63.4 µM (inactive)
[4]
  GI50: 18.2 µM (inactive)
[5]
  GI50: 14.8 µM (inactive)
[6]
  GI50: 22.1 µM (inactive)
[7]
  GI50: 15.6 µM (inactive)
[8]
  GI50: 59.4 µM (inactive)
[9]
  GI50: 51.1 µM (inactive)
[10]
  GI50: 17.8 µM (inactive)
[11]
  GI50: 36.8 µM (inactive)
[12]
  GI50: 33.9 µM (inactive)
[13]
  GI50: 23 µM (inactive)
[14]
  GI50: 18.5 µM (inactive)
[15]
  GI50: 21.9 µM (inactive)
[16]
  GI50: 19.3 µM (inactive)
[17]
  GI50: 46.3 µM (inactive)
[18]
  GI50: 18.2 µM (inactive)
[19]
  GI50: 16.3 µM (inactive)
[20]
  GI50: 27.6 µM (inactive)
[21]
  GI50: 34.6 µM (inactive)
[22]
  GI50: 16.1 µM (inactive)
[23]
  GI50: 22.2 µM (inactive)
[24]
  GI50: 35 µM
[25]
  GI50: 20.5 µM (inactive)
[26]
  GI50: 20.4 µM (inactive)
[27]
  GI50: 17.1 µM (inactive)
[28]
  GI50: 20 µM (inactive)
[29]
  GI50: 38.4 µM (inactive)
[30]
  GI50: 31.2 µM (inactive)
[31]
  GI50: 33 µM (inactive)
[32]
  GI50: 45.3 µM (inactive)
[33]
  GI50: 67 µM (inactive)
[34]
  GI50: 27.7 µM (inactive)
[35]
  GI50: 16.1 µM (inactive)
[36]
  GI50: 26.7 µM (inactive)
[37]
  GI50: 20.4 µM (inactive)
[38]
  GI50: 18.6 µM (inactive)
[39]
  GI50: 28.2 µM (inactive)
[40]
  GI50: 26.2 µM (inactive)
[41]
  GI50: 18.7 µM (inactive)
[42]
  GI50: 20.9 µM (inactive)
[43]
  GI50: 34.4 µM (inactive)
[44]
  GI50: 18 µM (inactive)
[45]
  GI50: 15.1 µM (inactive)
[46]
  GI50: 19.9 µM (inactive)
[47]
  GI50: 18.1 µM (inactive)
[48]
  GI50: 48.8 µM (inactive)
[49]
  GI50: 15.4 µM (inactive)

## COc1cc([C@@H]2c3cc4c(cc3C[C@H]3COC(=O)[C@@H]32)OCO4)cc(OC)c1OC [DESOXYPODOPHYLLOTOXIN]
[1]
  GI50: 0.0125 µM (active)
[2]
  GI50: 0.005 µM (active)
[3]
  GI50: 0.00912 µM (active)
[4]
  GI50: 0.00721 µM (active)
[6]
  GI50: 0.00393 µM (active)
[7]
  GI50: 0.00893 µM (active)
[8]
  GI50: 0.00713 µM (active)
[9]
  GI50: 0.00986 µM (active)
[10]
  GI50: 0.00372 µM (active)
[50]
  GI50: 0.00711 µM (active)
[11]
  GI50: 0.00703 µM (active)
[13]
  GI50: 0.00995 µM (active)
[51]
  GI50: 0.00204 µM (active)
[16]
  GI50: 0.00875 µM (active)
[17]
  GI50: 0.00791 µM (active)
[52]
  GI50: 0.00875 µM (active)
[18]
  GI50: 0.00859 µM (active)
[19]
  GI50: 0.0655 µM (active)
[20]
  GI50: 0.00634 µM (active)
[21]
  GI50: 0.00714 µM (active)
[25]
  GI50: 0.199 µM (active)
[26]
  GI50: 0.0803 µM (active)
[27]
  GI50: 0.00728 µM (active)
[28]
  GI50: 0.00733 µM (active)
[29]
  GI50: 0.0149 µM (active)
[31]
  GI50: 0.0103 µM (active)
[32]
  GI50: 0.004 µM (active)
[33]
  GI50: 0.00828 µM (active)
[34]
  GI50: 0.00865 µM (active)
[53]
  GI50: 0.00353 µM (active)
[35]
  GI50: 0.00885 µM (active)
[36]
  GI50: 0.0091 µM (active)
[37]
  GI50: 0.00632 µM (active)
[54]
  GI50: < 0.01 µM (active)
[55]
  GI50: 0.00261 µM (active)
[39]
  GI50: 0.0074 µM (active)
[56]
  GI50: > 10.8 µM (inactive)
[40]
  GI50: 0.0092 µM (active)
[41]
  GI50: 0.00843 µM (active)
[57]
  GI50: 0.00273 µM (active)
[42]
  GI50: 33.6 µM (inactive)
[43]
  GI50: 0.0986 µM (active)
[44]
  GI50: 0.0127 µM (active)
[58]
  GI50: 0.00222 µM (active)
[59]
  GI50: 0.0074 µM (active)
[45]
  GI50: 0.00843 µM (active)
[46]
  GI50: 0.00695 µM (active)
[47]
  GI50: 0.00376 µM (active)
[60]
  GI50: 0.003 µM (active)
[61]
  GI50: < 0.01 µM (active)
[62]
  GI50: < 0.01 µM (active)
[48]
  GI50: 0.00791 µM (active)
[63]
  GI50: 0.00698 µM (active)

## CCC1=CC2CC(C(=O)OC)C1(N(C)C)C2=O (stereo not drawn)
[1]
  GI50: > 100 µM (inactive)
[2]
  GI50: > 100 µM (inactive)
[3]
  GI50: > 100 µM (inactive)
[4]
  GI50: > 100 µM (inactive)
[5]
  GI50: > 100 µM (inactive)
[6]
  GI50: > 100 µM (inactive)
[7]
  GI50: > 100 µM (inactive)
[8]
  GI50: > 100 µM (inactive)
[9]
  GI50: > 100 µM (inactive)
[12]
  GI50: > 100 µM (inactive)
[16]
  GI50: > 100 µM (inactive)
[64]
  GI50: > 100 µM (inactive)
[20]
  GI50: > 100 µM (inactive)
[21]
  GI50: > 100 µM (inactive)
[22]
  GI50: > 100 µM (inactive)
[65]
  GI50: > 100 µM (inactive)
[25]
  GI50: > 100 µM (inactive)
[26]
  GI50: > 100 µM (inactive)
[27]
  GI50: > 100 µM (inactive)
[31]
  GI50: > 100 µM (inactive)
[32]
  GI50: > 100 µM (inactive)
[33]
  GI50: > 100 µM (inactive)
[34]
  GI50: > 100 µM (inactive)
[35]
  GI50: > 100 µM (inactive)
[66]
  GI50: > 100 µM (inactive)
[37]
  GI50: > 100 µM (inactive)
[54]
  GI50: > 100 µM (inactive)
[56]
  GI50: > 100 µM (inactive)
[40]
  GI50: > 100 µM (inactive)
[41]
  GI50: > 100 µM (inactive)
[43]
  GI50: > 100 µM (inactive)
[44]
  GI50: > 100 µM (inactive)
[46]
  GI50: > 100 µM (inactive)
[47]
  GI50: > 100 µM (inactive)
[49]
  GI50: > 100 µM (inactive)
[63]
  GI50: > 100 µM (inactive)
